Measured values taken from US6471948B1 (Church & Dwight Co. Inc., priority 2000, dated 2002).

Assay: Cetylpyridinium chloride adsorption on mucin-coated hydroxyapatite disks, HPLC of extract
Assay type: physicochemical
Settings: for % Activity: relative to no surfactant
Experimental: Disks of hydroxyapatite (HAP) measuring 0.5 inch diameter and 0.04 inch thick were obtained from Clarkson Chromatography Products (Williamsport, Penn.). The disks were hydrated in deionized water for one hour and then allowed to air dry.
A 1% dispersion of bovine submaxillary mucin (type 1S, from Sigma) was then prepared. The HAP disks were then soaked in the 1% mucin dispersion overnight. The disks were then allowed to air dry for al least 2 hours. These disks, composed of HAP on which was deposited a layer of mucin, represented an oral surface.
The disks were soaked in 5 ml of the test solution for 10 minutes in a polystyrene petri dish (35 mm diameter×10 mm deep, from Becton Dickinson). The disks were then removed, rinsed for 3 seconds with deionized water on each side with a wash bottle.
The extractant solution is composed of 60 parts of a 20 mM phosphate buffer and 40 parts methanol, in which is dissolved 30 mM cetyltrimethylammonium bromide. The disks were soaked in 5 ml of the extractant solution for 2 hours.

[1] = Example 2: test solution as Example 1, also 0.125% by weight sodium bicarbonate
[2] = Example 1: test solution 0.125% cetylpyridinium chloride + 0.9% surfactant, disks soaked 10 minutes
[3] = Example 1: test solution 0.125% cetylpyridinium chloride + 0.9% surfactant

Compound	CPC adsorbed [1] [μg/disk]	CPC adsorbed [2] [μg/disk]	cetylpyridinium chloride absorbed (in words) (Example 1 test solutions)	% Activity [1] [%]	% Activity [3] [%]
CCCCCCCCCC[NH2+][O-] [Decylamine oxide]	39.1	–	–	62.7	–
Cocamidopropyl betaine	41.2	41.8	clearly superior	66.0	70.4
Cocobetaine	48.8	–	–	78.2	–
Dodecyl-Amphodiacetate	10.6	–	–	17.0	–

Continued, in another order:

CPC adsorbed [1] [μg/disk]	CPC adsorbed [2] [μg/disk]	cetylpyridinium chloride absorbed (in words) (Example 1 test solutions)	Compound	% Activity [1] [%]	% Activity [3] [%]
47.4	–	–	CCCCCCCC[NH2+][O-] [Octylamine oxide]	76.0	–
–	8.0	–	Cocoamphodiacetate	–	13.5
7.4	–	–	Dodecyl-Iminodipropionate	11.9	–
